Here are results for nine molecules from patent publication US9758529B2, “Fused dihydro-4H-pyrazolo[5,1-C][1,4]oxazinyl compounds and analogs for treating CNS disorders” (Sunovion Pharmaceuticals Inc., priority 2015, dated 2017).

For this test, the system named is mice. Kind of test: Neuropharmacological Assay (SmartCube). The test is classed as in vivo. The settings on record: i.p. 15 min before behavioral test; 3 doses, most efficacious dose(s) presented. An excerpt: Neurosci. […] As reported in Roberds, because psychiatric diseases generally result from disorders of cell-cell communication or circuitry, intact systems are useful in detecting improvement in disease-relevant endpoints. These endpoints are typically behavioral in nature, often requiring human observation and interpretation. To facilitate testing of multiple compounds for behavioral effects relevant to psychiatric disease, PsychoGenics, Inc. (Tarrytown, N.Y., “PGI”) developed SmartCube™, an automated system in which behaviors of compound-treated mice are captured by digital video and analyzed with computer algorithms. […] PGI Analytical Systems uses data from SmartCube™ to compare the behavioral signature of a test compound to a database of behavioral signatures obtained using a large set of diverse reference compounds. (The composition of the database as well as validation of the method is further described in Roberds). In this way, the neuropharmacological effects of a test compound can be predicted by similarity to major classes of compounds, such as antipsychotics, anxiolytics and antidepressants.
The SmartCube™ system produces an activity signature indicating the probability that the activity of the test compound at the administered dose matches a given class of neuropharmacological agents. (See, e.g., Roberds, FIGS. 2 and 3). The test compound is simultaneously compared against multiple classes of agents; thus, a separate probability is generated for each behavioral effect measured (e.g., anxiolytic activity, analgesic activity, etc.). In Table 2 and 2B, these probabilities are reported for each behavioral effect measured as follows:
where LOQ is the limit of quantification.
Provided compounds were dissolved in a mixture of Pharmasolve™ (N-methyl-2-pyrrolidone), polyethylene glycol and propylene glycol, and were injected i.p. 15 min. before the behavioral test. For each compound, injections were administered at 3 different doses. For each behavioral effect measured, results for the most efficacious dose(s) are presented.

With `C[C@H](N)[C@H]1OCCn2nc3ccccc3c21` (relative stereo) [Compound 33, (+/−)-rel-(R)-1-((S)-3,4-dihydro-1H-[1,4]oxazino[4,3-b]indazol-1-yl) ethanaminium chloride], the “AD: ADHD (probability of class match)” value was “++++ (50%≦ ++++)”, the “AG: analgesic (probability of class match)” value (“AG: analgesic” below) is “++ (5%≦ ++ <25%)”, the “AX: anxiolytic (probability of class match)” value (shortened to “AX: anxiolytic”) is “++ (5%≦ ++ <25%)” and the “CE: cognitive enhancer (probability of class match)” value (from here on “CE: cognitive enhancer”) is recorded as “+ (LOQ≦ + <5%)”. Moreover, the “DP: anti-depressant (probability of class match)” value (“DP: anti-depressant” for short) is recorded as “++ (5%≦ ++ <25%)”, the “HA: hallucinogen (probability of class match)” value (from here on “HA: hallucinogen”) is “++ (5%≦ ++ <25%)”, the “MS: mood stabilizer (probability of class match)” value (shortened to “MS: mood stabilizer”) is on record as “+ (LOQ≦ + <5%)” and the “PS: anti-psychotic (probability of class match)” value (shortened to “PS: anti-psychotic”) is on record as “+ (LOQ≦ + <5%)”. Besides, the “SD: sedative hypnotic (probability of class match)” value (from here on “SD: sedative hypnotic”) is reported as “+ (LOQ≦ + <5%)”, the “UN: uncharacterized CNS activity (probability of class match)” value (“UN: uncharacterized CNS activity” below) is given as “+++ (25%≦ +++ <50%)” and the “XG: anxiogenic (probability of class match)” value (from here on “XG: anxiogenic”) was “+ (LOQ≦ + <5%)”.

With `CN[C@@H](C)[C@H]1OCCn2nc3ccccc3c21` (relative stereo) [Compound 34, (+/−)-rel-(R)-1-((S)-3,4-dihydro-1H-[1,4]oxazino[4,3-b]indazol-1-yl)-N-methylethanaminium chloride], the “AD: ADHD (probability of class match)” value is on record as “+ (LOQ≦ + <5%)”, the “AG: analgesic” value is reported as “+ (LOQ≦ + <5%)”, the “AX: anxiolytic” value is on record as “++ (5%≦ ++ <25%)” and the “CE: cognitive enhancer” value was “+ (LOQ≦ + <5%)”. Besides, the “DP: anti-depressant” value was “+ (LOQ≦ + <5%)”, the “HA: hallucinogen” value was “+ (LOQ≦ + <5%)”, the “MS: mood stabilizer” value is recorded as “+ (LOQ≦ + <5%)” and the “PS: anti-psychotic” value was “+ (LOQ≦ + <5%)”. The “SD: sedative hypnotic” value is reported as “+ (LOQ≦ + <5%)”, the “UN: uncharacterized CNS activity” value is on record as “+ (LOQ≦ + <5%)” and the “XG: anxiogenic” value was “+ (LOQ≦ + <5%)”.

On to `CNC[C@@H]1OCCn2nc3ccccc3c21` [Compound 1, (S)-(3,4-dihydro-1H-[1,4]oxazino[4,3-b]indazol-1-yl)-N-methylmethanaminium chloride], for which the “AD: ADHD (probability of class match)” value is recorded as “+ (LOQ≦ + <5%)”, the “AG: analgesic” value was “+ (LOQ≦ + <5%)”, the “AX: anxiolytic” value was “++ (5%≦ ++ <25%)” and the “CE: cognitive enhancer” value was “+ (LOQ≦ + <5%)”. Besides, the “DP: anti-depressant” value is on record as “+ (LOQ≦ + <5%)”, the “HA: hallucinogen” value is “+ (LOQ≦ + <5%)”, the “MS: mood stabilizer” value is on record as “+ (LOQ≦ + <5%)” and the “PS: anti-psychotic” value is recorded as “+ (LOQ≦ + <5%)”. For the same molecule, the “SD: sedative hypnotic” value is reported as “+ (LOQ≦ + <5%)”, the “UN: uncharacterized CNS activity” value is “+ (LOQ≦ + <5%)” and the “XG: anxiogenic” value was “+ (LOQ≦ + <5%)”.

With `CNC[C@H]1OCCn2nc3ccccc3c21.Cl` [Compound 2, (R)-(3,4-dihydro-1H-[1,4]oxazino[4,3-b]indazol-1-yl)-N-methylmethanaminium chloride], the “AD: ADHD (probability of class match)” value was “++ (5%≦ ++ <25%)”, the “AG: analgesic” value is reported as “+ (LOQ≦ + <5%)”, the “AX: anxiolytic” value is reported as “++ (5%≦ ++ <25%)” and the “CE: cognitive enhancer” value is “+ (LOQ≦ + <5%)”. Moreover, the “DP: anti-depressant” value is “++++ (50%≦ ++++)”, the “HA: hallucinogen” value was “++++ (50%≦ ++++)”, the “MS: mood stabilizer” value is “+ (LOQ≦ + <5%)” and the “PS: anti-psychotic” value was “+ (LOQ≦ + <5%)”. Moreover, the “SD: sedative hypnotic” value is “+ (LOQ≦ + <5%)”, the “UN: uncharacterized CNS activity” value is listed as “+ (LOQ≦ + <5%)” and the “XG: anxiogenic” value was “+ (LOQ≦ + <5%)”.

Turning to `CN(C)C[C@@H]1OCCn2nc3ccccc3c21` [Compound 3, (S)-(3,4-dihydro-1H-[1,4]oxazino[4,3-b]indazol-1-yl)-N,N-dimethylmethanaminium chloride], the “AD: ADHD (probability of class match)” value is listed as “+ (LOQ≦ + <5%)”, the “AG: analgesic” value was “+ (LOQ≦ + <5%)”, the “AX: anxiolytic” value is given as “+ (LOQ≦ + <5%)” and the “CE: cognitive enhancer” value was “+ (LOQ≦ + <5%)”. Further, the “DP: anti-depressant” value is listed as “++ (5%≦ ++ <25%)”, the “HA: hallucinogen” value was “+ (LOQ≦ + <5%)”, the “MS: mood stabilizer” value was “+ (LOQ≦ + <5%)” and the “PS: anti-psychotic” value is on record as “++ (5%≦ ++ <25%)”. Also, the “SD: sedative hypnotic” value is recorded as “+ (LOQ≦ + <5%)”, the “UN: uncharacterized CNS activity” value is given as “+++ (25%≦ +++ <50%)” and the “XG: anxiogenic” value is given as “+ (LOQ≦ + <5%)”.

Consider `CN(C)C[C@H]1OCCn2nc3ccccc3c21.Cl` [Compound 4, (R)-(3,4-dihydro-1H-[1,4]oxazino[4,3-b]indazol-1-yl)-N,N-dimethylmethanaminium chloride], for which the “AD: ADHD (probability of class match)” value was “++ (5%≦ ++ <25%)”, the “AG: analgesic” value is given as “++ (5%≦ ++ <25%)”, the “AX: anxiolytic” value is on record as “+ (LOQ≦ + <5%)” and the “CE: cognitive enhancer” value is reported as “++ (5%≦ ++ <25%)”. For the same molecule, the “DP: anti-depressant” value was “++++ (50%≦ ++++)”, the “HA: hallucinogen” value is listed as “++ (5%≦ ++ <25%)”, the “MS: mood stabilizer” value was “+ (LOQ≦ + <5%)” and the “PS: anti-psychotic” value is on record as “+ (LOQ≦ + <5%)”. Moreover, the “SD: sedative hypnotic” value was “+ (LOQ≦ + <5%)”, the “UN: uncharacterized CNS activity” value was “++ (5%≦ ++ <25%)” and the “XG: anxiogenic” value is recorded as “+ (LOQ≦ + <5%)”.

For the molecule `CNCC1OCCn2nc3ccc(Cl)cc3c21.Cl` (stereo not drawn) [Compound 5, 1-(9-chloro-3,4-dihydro-1H-[1,4]oxazino[4,3-b]indazol-1-yl)-N-methylmethanaminium chloride], the “AD: ADHD (probability of class match)” value is “+ (LOQ≦ + <5%)”, the “AG: analgesic” value is “++ (5%≦ ++ <25%)”, the “AX: anxiolytic” value is reported as “+ (LOQ≦ + <5%)” and the “CE: cognitive enhancer” value was “+ (LOQ≦ + <5%)”. Also, the “DP: anti-depressant” value is “++ (5%≦ ++ <25%)”, the “HA: hallucinogen” value is on record as “+ (LOQ≦ + <5%)”, the “MS: mood stabilizer” value was “+ (LOQ≦ + <5%)” and the “PS: anti-psychotic” value is given as “+ (LOQ≦ + <5%)”. Also, the “SD: sedative hypnotic” value is given as “+ (LOQ≦ + <5%)”, the “UN: uncharacterized CNS activity” value is on record as “+ (LOQ≦ + <5%)” and the “XG: anxiogenic” value is “+ (LOQ≦ + <5%)”.

On to `CN(C)CC1OCCn2nc3ccc(Cl)cc3c21.Cl` (stereo not drawn) [Compound 6, 1-(9-chloro-3,4-dihydro-1H-[1,4]oxazino[4,3-b]indazol-1-yl)-N,N-dimethylmethanaminium chloride], for which the “AD: ADHD (probability of class match)” value was “+ (LOQ≦ + <5%)”, the “AG: analgesic” value was “++ (5%≦ ++ <25%)”, the “AX: anxiolytic” value is “++ (5%≦ ++ <25%)” and the “CE: cognitive enhancer” value is recorded as “++ (5%≦ ++ <25%)”. The “DP: anti-depressant” value is “+++ (25%≦ +++ <50%)”, the “HA: hallucinogen” value was “+ (LOQ≦ + <5%)”, the “MS: mood stabilizer” value is recorded as “+ (LOQ≦ + <5%)” and the “PS: anti-psychotic” value was “++ (5%≦ ++ <25%)”. The “SD: sedative hypnotic” value is reported as “+ (LOQ≦ + <5%)”, the “UN: uncharacterized CNS activity” value is given as “+ (LOQ≦ + <5%)” and the “XG: anxiogenic” value is “+ (LOQ≦ + <5%)”.

As for `CNCC1OCCn2nc3ccc(F)cc3c21` (stereo not drawn) [Compound 7, 1-(9-fluoro-3,4-dihydro-1H-[1,4]oxazino[4,3-b]indazol-1-yl)-N-methylmethanaminium chloride], the “AD: ADHD (probability of class match)” value is given as “+ (LOQ≦ + <5%)”, the “AG: analgesic” value is recorded as “++ (5%≦ ++ <25%)”, the “AX: anxiolytic” value is “+ (LOQ≦ + <5%)” and the “CE: cognitive enhancer” value is “+ (LOQ≦ + <5%)”. The “DP: anti-depressant” value was “++++ (50%≦ ++++)”, the “HA: hallucinogen” value is “+ (LOQ≦ + <5%)”, the “MS: mood stabilizer” value is recorded as “+ (LOQ≦ + <5%)” and the “PS: anti-psychotic” value is on record as “+ (LOQ≦ + <5%)”. For the same molecule, the “SD: sedative hypnotic” value was “+ (LOQ≦ + <5%)”, the “UN: uncharacterized CNS activity” value is recorded as “+ (LOQ≦ + <5%)” and the “XG: anxiogenic” value was “+ (LOQ≦ + <5%)”.
